pIC50: −log10 of the molar value. Read-outs that look alike come from different tables or passages of the source.
Key:
[1] = DPPH˙ radical scavenging assay; type: biochemical; settings: for IC50: DPPH˙ scavenging
Method: The 2,2-diphenyl-1-picrylhydrazyl (DPPH˙) radical scavenging assay is based on the transfer of one hydrogen from the analyzed compound to the violet radical DPPH˙. This will convert it to a yellow compound, the change in absorbance being proportional to the amount of DPPH˙ neutralized, according to Brand-Williams et al..
The preparation of the DPPH˙ reagent was previously reported by our group. […] Over the previous quantities, DMSO was added until a total volume of 50 µL was obtained in all cuvettes, and 1950 µL of DPPH˙ solution was added to all cuvettes; then, they were shaken for well over 10 min in the dark at room temperature. The absorbances of the solutions were measured at λ = 517 nm. The DPPH˙ radical scavenging activity of evaluated compounds was calculated using Equation (2):(2) DPPH scavenging (%)=control absorbance−sample absorbance/control absorbance×100

[2] = Fe^2+ chelation assay; type: biochemical
Method: The protocol used for assessing Fe^2+ chelating capacity of the compounds was adapted from a report of Benzie and Strain and previously reported by our group. The iron(II) chelation ability of compounds was calculated using Equation (7):(7) iron chelation (%)=control absorbance−sample absorbance/control absorbance×100
The chelating potential for the ferrous ions of the new compounds was determined, based on their competition for Fe^2+ with ferrozine.

[3] = Cu^2+ chelation assay; type: biochemical
[4] = Ferric ions (Fe^3+) reducing antioxidant power by cyclic voltammetry
Method: The evaluated compounds’ stock solutions used were prepared at a concentration of 5 mM. To test their redox properties, dilutions of 0.5 mM and 2 mM were prepared in 0.1 M HClO4 electrolyte (pH = 1.2). Screen-printed electrodes (SPEs; Metrohm DropSens, Oviedo, Spain) (planar electrodes) with graphite and gold working electrodes were used. Cyclic voltammetry (CV) and differential pulse voltammetry (DPV) were the electrochemical methods applied. The experimental conditions for each test are mentioned near the corresponding data (Appendix A).
(§1) The antioxidant properties were evaluated in terms of their activity against some free radicals, and other compounds reported in the literature, relevant for this purpose, such as: • ferric ions (Fe^3+)—used to test the reduction of the antioxidant character of the compounds; • DPPH˙ free radical– used to test the scavenging effect of the compounds on this radical; • hydrogen peroxide (H2O2)—used to test the scavenging effect of the synthesized molecules on this compound; • 2,2,6,6-tetramethylpiperidinyl-1-oxy (TEMPO)—used to test the scavenging effect of the synthesized molecules on this compound.
This method is based on the evaluation of the influence of the compound measured by the direct reduction of Fe[(CN)6]^3− to […]. This assay is based on the reduction of Fe^3+ to Fe^2+ due to the action of antioxidants. Based on the electrochemical behavior of the studied compounds, the interaction of Fe^3+ was followed by cyclic voltammetry (CV) via the possible changes of redox peaks characteristic for Fe^3+/Fe^2+ transition after the interaction with antioxidants (if any).
From the voltammogram of potassium ferricyanide it can be observed that the one-electron transfer process Fe^3+/Fe^2+ occurs at 0.247 V/ 0.150 V in acidic media (red) (Figure A1; Table A1).
Each compound presents its characteristic peaks (blue line in each figure).

[5] = TEMPO scavenging by differential pulse voltammetry; settings: 2 mM TEMPO, one hour incubation, 0.1 M HClO4, DPV
Method: as §1
TEMPO (2,2,6,6-tetramethylpiperidine-N-oxyl) is a stable organic nitroxide radical that has been reported to scavenge carbon-centered radicals.
Differential pulse voltammetry (DPV) was then applied in order to evaluate the antioxidant effectiveness of the novel compounds through their ability to scavenge the free radical species.

[6] = tested on: HaCaT cells; experiment: Cytotoxicity determination, MTT method; type: cell-based; settings: Homo sapiens, HaCaT cells, MTT, 24 h; for pIC50: read-out: IC50; for IC50: read-out: IC50 (µg/mL)
Method: To determine the cytotoxic action of the obtained compounds 5[…], and 8a-b, a normal human keratinocytes cell line was used (HaCaT keratinocytes, CLS-300493, Eppelheim, Germany). HaCaT cells were cultured in Dulbecco's Modified Eagle Media (DMEM) supplemented with 1% L-glutamine, 1% penicillin-streptomycin, and 5% fetal bovine serum. At 80% confluence, the cells were transferred to 96 well plates at a confluence of 12×10^3 cells/well and left to attach for 24 h at 37°C and 5% CO2 in a humidified atmosphere. […] After 24 h, the culture media was replaced with 100 μL of MTT solution at a final concentration of 5 μg/mL/well and left to interact with the cells for 2 h in the incubator. After this, the MTT solution was replaced with 100 μL of isopropanol, left to dissolve the formazan crystals for 5 min, and read at 550 and 630 nm using a BioTek Epoch plate reader (BioTek Instruments, Winooski, VT, USA) and Gen5 software (version 1.09).

[7] = compound 0.5 mM + Fe^3+/Fe^2+ (0.5 mM potassium ferricyanide), 1st Eox column
[8] = compound 0.5 mM + Fe^3+/Fe^2+ (0.5 mM potassium ferricyanide), 1st Iox column
[9] = compound + Fe^3+/Fe^2+, 1st Ered
[10] = compound + Fe^3+/Fe^2+, 1st Ired
[11] = compound + Fe^3+/Fe^2+, 2nd Eox
[12] = compound + Fe^3+/Fe^2+, 2nd Iox column
[13] = compound + Fe^3+/Fe^2+, 3rd Eox column
[14] = compound + Fe^3+/Fe^2+, 3rd Iox column
[15] = compound + Fe^3+/Fe^2+, 5th Eox
[16] = compound + Fe^3+/Fe^2+, 5th Iox column
[17] = compound alone 0.5 mM in 0.1 M HClO4, 2nd Eox
[18] = compound alone 0.5 mM in 0.1 M HClO4, 2nd Iox column
[19] = compound alone 0.5 mM in 0.1 M HClO4, 3rd Iox column

SMILES | % of DPPH˙ Scavenged ([1]; 1 µg/mL) | % of DPPH˙ Scavenged ([1]; 1.5 µg/mL) | % of DPPH˙ Scavenged ([1]; 2 µg/mL) | % of DPPH˙ Scavenged ([1]; 3 µg/mL) | % of DPPH˙ Scavenged ([1]; 5 µg/mL) | IC50 [1] | Chelation Capacity (%), ferrous ions ([2]; 50 µg/mL) | Chelation Capacity (%), ferrous ions ([2]; 100 µg/mL) | Chelation Capacity (%), ferrous ions ([2]; 150 µg/mL) | Chelation Capacity (%), ferrous ions ([2]; 200 µg/mL) | Chelation Capacity (%), cupric ions ([3]; 3.36 µg/mL) | Chelation Capacity (%), cupric ions ([3]; 6.72 µg/mL) | Chelation Capacity (%), cupric ions ([3]; 10.08 µg/mL) | Chelation Capacity (%), cupric ions ([3]; 13.44 µg/mL) | Chelation Capacity (%), cupric ions ([3]; 16.80 µg/mL) | Ered (V) [4, 9] | Ired (μA) [4, 10] | Eox (V) [4, 11] | Iox (μA) [4, 12] | Iox (μA) [4, 18] | other results
Cc1csc(N/N=C/c2ccc(O)cc2O)n1.Cl [Compound 5b, (E)-2-(2,4-dihydroxybenzylidene)-1-(4-methylthiazol-2-yl)hydrazin-1-ium chloride] | 16.46% | 24.42% | 34.44% | 52.10% | 87.08% | 2.90 µg/mL | 1.18% | 8.95% | 18.42% | 31.33% | 11.58% | 15.60% | 22.76% | 28.99% | 34.10% | 0.093 V | −8.66 μA | 0.342 V | 22.3 μA | 15.68 μA | Eox (V) [4, 7]: 0.152 V; Iox (μA) [4, 8]: 5.57 μA; Ered (V) ([4]; compound + Fe^3+/Fe^2+, 2nd Ered column): 0.323 V; Ired (μA) ([4]; compound + Fe^3+/Fe^2+, 2nd Ired): −1.52 μA; Eox (V) [4, 13]: 0.505 V; Iox (μA) [4, 14]: 1.20 μA; Eox (V) ([4]; compound + Fe^3+/Fe^2+, 4th Eox column): 0.506 V; Iox (μA) ([4]; compound + Fe^3+/Fe^2+, 4th Iox column): 8.68 μA; Eox (V) [4, 15]: 0.806 V; Iox (μA) [4, 16]: 8.68 μA; Eox (V) [4, 17]: 0.355 V; Ered (V) ([4]; compound alone 0.5 mM in 0.1 M HClO4, 2nd Ered column): 0.327 V; Ired (μA) ([4]; compound alone 0.5 mM in 0.1 M HClO4, 2nd Ired): −1.56 μA; oxidation signal for TEMPO after incubation with the compound [5]: both the signal shift to higher oxidation potentials and its decrease; pIC50 [6]: 3.75; IC50 [6]: 50.3 µg/mL
Br.C/C(=N\Nc1nc(-c2ccc(O)c(C(N)=O)c2)cs1)c1ccc(O)cc1O [Compound 7a, (E)-1-(4-(3-carbamoyl-4-hydroxyphenyl)thiazol-2-yl)-2-(1-(2,4-dihydroxyphenyl)ethylidene)hydrazin-1-ium bromide] | 20.01% | 22.10% | 26.75% | 32.43% | 49.27% | 5.19 µg/mL | 0.07% | 1.73% | 2.29% | 3.88% | 8.76% | 16.70% | 26.63% | 34.35% | 38.88% | 0.164 V | −7.23 μA | 0.23 V | 4.35 μA | 4.37 μA | Iox (μA) [4, 14]: 1.75 μA; Iox (μA) [4, 19]: 1.95 μA; oxidation signal for TEMPO after incubation with the compound [5]: does not decrease; pIC50 [6]: 4.12; IC50 [6]: 35.1 µg/mL
Br.Oc1ccc(/C=N/Nc2nc(-c3ccccc3)cs2)c(O)c1 [Compound 6b, (E)-2-(2,4-dihydroxybenzylidene)-1-(4-phenylthiazol-2-yl)hydrazin-1-ium bromide] | 10.60% | 13.62% | 17.23% | 23.89% | 41.22% | 6.23 µg/mL | 0.07% | 4.84% | 13.39% | 22.27% | 3.84% | 6.80% | 10.44% | 14.34% | 17.07% | 0.149 V | −8.26 μA | 0.325 V | 44.78 μA | 37.55 μA | Eox (V) [4, 7]: 0.203 V; Iox (μA) [4, 8]: 2.48 μA; Eox (V) [4, 15]: 0.879 V; Iox (μA) [4, 16]: 21.84 μA; Eox (V) [4, 17]: 0.386 V; Eox (V) ([4]; compound alone 0.5 mM in 0.1 M HClO4, 5th Eox): 0.894 V; Iox (μA) ([4]; compound alone 0.5 mM in 0.1 M HClO4, 5th Iox column): 8.86 μA; oxidation signal for TEMPO after incubation with the compound [5]: does not decrease; pIC50 [6]: > 5.90; IC50 [6]: < 0.5 µg/mL
Br.C/C(=N\Nc1nc(-c2ccccc2)cs1)c1ccc(O)cc1O [Compound 6a, (E)-2-(1-(2,4-dihydroxyphenyl)ethylidene)-1-(4-phenylthiazol-2-yl)hydrazin-1-ium bromide] | 5.90% | 9.07% | 12.87% | 19.88% | 38.13% | 6.56 µg/mL | 0.07% | 7.14% | 14.50% | 25.03% | 6.33% | 10.30% | 13.65% | 15.90% | 18.67% | 0.142 V | −5.88 μA | 0.223 V | 2.74 μA | 3.04 μA | Eox (V) [4, 13]: 0.424 V; Iox (μA) [4, 14]: 3.82 μA; Eox (V) ([4]; compound alone 0.5 mM in 0.1 M HClO4, 3rd Eox column): 0.586 V; Iox (μA) [4, 19]: 6.79 μA; oxidation signal for TEMPO after incubation with the compound [5]: does not decrease; pIC50 [6]: 3.51; IC50 [6]: 127 µg/mL

— PMC8615111, “Phenolic Thiazoles with Antioxidant and Antiradical Activity. Synthesis, In Vitro Evaluation, Toxicity, Electrochemical Behavior, Quantum Studies and Antimicrobial Screening” (Antioxidants, 2021)
